Results reported in ChEMBL document CHEMBL1159264, “Aplysillin A, a thrombin receptor antagonist from the marine sponge Aplysina fistularis fulva” (J Nat Prod, 1995).

Target: T1, Proteinase-activated receptor 1 (Homo sapiens, UniProt P25116)
T1 sequence (P25116 whole entry): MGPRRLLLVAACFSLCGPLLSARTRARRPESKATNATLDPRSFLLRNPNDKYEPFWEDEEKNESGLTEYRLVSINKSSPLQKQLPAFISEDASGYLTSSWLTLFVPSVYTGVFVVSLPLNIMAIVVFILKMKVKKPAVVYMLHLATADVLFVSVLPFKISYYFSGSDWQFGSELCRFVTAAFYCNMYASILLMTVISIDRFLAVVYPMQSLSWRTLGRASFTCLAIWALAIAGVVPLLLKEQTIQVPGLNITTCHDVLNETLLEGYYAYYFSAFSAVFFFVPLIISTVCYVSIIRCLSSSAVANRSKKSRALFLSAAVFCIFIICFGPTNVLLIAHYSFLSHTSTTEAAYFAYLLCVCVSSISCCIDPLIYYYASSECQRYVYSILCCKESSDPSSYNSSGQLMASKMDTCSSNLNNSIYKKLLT
Assay: Displacement of [125I]thrombin from thrombin receptor in human platelet membrane
Assay type: cell membranes

IC50: 20 µM
SMILES: O=S(=O)(O)OC(=C\c1cc(O)c(O)c(Br)c1)/C(=C\c1ccc(O)c(Br)c1)OS(=O)(=O)O [APLYSIILLIN A]
